A word on the IC50: it is the point on the concentration scale where inhibition reaches its midpoint. Read a low IC50 as greater potency in that assay.

Assay [1] concerns the target T1, Cholesteryl ester transfer protein (Homo sapiens, UniProt P11597).
T1 sequence (P11597 whole entry): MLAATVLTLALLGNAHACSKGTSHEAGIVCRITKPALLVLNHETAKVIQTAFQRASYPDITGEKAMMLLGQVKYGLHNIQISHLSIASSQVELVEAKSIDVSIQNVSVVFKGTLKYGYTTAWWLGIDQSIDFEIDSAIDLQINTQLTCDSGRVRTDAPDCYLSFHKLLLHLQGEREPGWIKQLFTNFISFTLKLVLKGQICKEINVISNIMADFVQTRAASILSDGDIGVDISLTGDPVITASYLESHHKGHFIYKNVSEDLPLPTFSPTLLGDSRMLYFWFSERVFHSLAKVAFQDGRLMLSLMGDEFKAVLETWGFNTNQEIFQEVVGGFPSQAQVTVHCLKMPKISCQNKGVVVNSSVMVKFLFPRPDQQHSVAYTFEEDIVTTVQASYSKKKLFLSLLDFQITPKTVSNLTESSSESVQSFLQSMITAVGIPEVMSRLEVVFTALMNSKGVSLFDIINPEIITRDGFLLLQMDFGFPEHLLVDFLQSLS
Put plainly: Compound was evaluated for inhibitory activity against cholesteryl ester transfer protein; Inactive.

Assay [2] deals with T1, Cholesteryl ester transfer protein. Put plainly: Compound was evaluated for inhibitory activity against cholesteryl ester transfer protein, reported from fungus. Set-up: species or system Fungi.
The target is the same in assay [3]. Nature of the assay: Compound was evaluated for inhibitory activity against cholesteryl ester transfer protein.
For assay [4] the target is unchanged. Nature of the assay: Compound was evaluated for inhibitory activity against cholesteryl ester transfer protein, reported from sponge.
Assay [5] shares this target. Nature of the assay: Compound was evaluated for inhibitory activity against cholesteryl ester transfer protein-SPA assay; Inactive.

With `CCCCC(C)/C=C/C(=O)N[C@@H](Cc1ccccc1)C(=O)N[C@@H](C)C(=O)N[C@@H](CC(C)C)C(=O)O` (stereo not given in full), the IC50 entry in assay [1] was “Not Active”.

For `CCCCC(C)C1CC(=O)N[C@@H](Cc2ccccc2)C(=O)N[C@@H](C)C(=O)N[C@@H](CC(C)C)C(=O)O1` (stereo not given in full), the IC50 in assay [2] was 40 µM; in assay [3], 50 µM; in assay [4] it was 0.3 µM.

For the compound `CCCCC(C)C(O)CC(=O)N[C@@H](Cc1ccccc1)C(=O)N[C@@H](C)C(=O)N[C@@H](CC(C)C)C(=O)O` (stereo not given in full), in assay [5], the IC50 result is given as “Not Active”.

For the origin of these results see ChEMBL document CHEMBL1130996, “A depsipeptide fungal metabolite inhibitor of cholesteryl ester transfer protein” (Bioorg Med Chem Lett, 1998).
